The subject of series [1] is human hematologic cancer cell lines. The series can be described thus: Antiproliferative effects in hematologic cancer cell lines (MTT assay). The series is classed as cell-based. The conditions noted are these: two cell lines derived from B-cell non-Hodgkin's lymphoma, 96 h. As to the method: A study was carried out to investigate anticancer activity of compounds 091 and 106 in a panel of human hematologic cancer cell lines in vitro. Antiproliferative effects of compounds 091 and 106 were evaluated in 7 human cancer cell lines representing several different cancer types of hematologic malignancy. […] Cell growth was assessed using the MTT assay.

Series [2] deals with PANC-1 pancreatic cancer cells. The series can be described thus: PANC-1 cell growth, alone or in combination with SN-38 (CellTiter-Glo).
Experimental: To determine whether compounds 091 or 106 in combination with SN-38 would enhance the anticancer activity of chemotherapy due to MEKK1 inhibition, PANC-1 human pancreatic cancer cells were examined.
Antiproliferative effects of SN-38 were evaluated in PANC-1 pancreatic cancer cells in combination with compound 091 or 106. Cultured human cancer cells were placed into 96-well plates and grown in the absence or continuous presence of 0.03-1000 nM SN-38 for 96 h with or without 1 μM of test compound. Cell growth was assessed using CellTiter-Glo® Luminescent Cell Viability Assay (Promega). IC50 values were determined as the concentration of a substance which inhibits cell growth by 50% compared to untreated cell populations.
The nature of series [3]: Blood brain barrier penetration. The conditions noted are these: in vivo.
The subject of series [4] is Cell lines which carried a B-RAF V600E mutation. Briefly: Cell growth inhibition in solid cancer cell lines (CellTiter-Glo or methylene blue). The series is classed as cell-based. Conditions: 96 hours, B-RAF V600E mutated cell lines very sensitive. As to the method: Compounds 091 and 106, were extensively tested in solid cancer cell lines (shown in FIG. 3 for 18 cell lines for compound 091 and 20 cell lines for compound 106). […] Cell growth was assessed using a CellTiter-Glo® Luminescent Cell Viability Assay (Promega) or a methylene blue assay.

Another series deals with MEK1 (Homo sapiens, UniProt Q02750). The series can be described thus: Biochemical MEK1 assay (ELISA, ERK2-coated plate). The method, then: A biochemical MEK1 assay was carried out to investigate whether compounds of formula (I) or (II), e.g., compounds 029, 091, 106 and 114 are MEK1 inhibitors. Biochemical MEK1 inhibition of the compounds was assessed using an ELISA assay. All assays were performed in a 96 well format. A plate coated with ERK2, a substrate protein for MEK1 was used for biochemical MEK1 assay. In a final volume of 40 μL, MEK1 (25 ng) was incubated with 50 mmol/L HEPES, 20 mmol/L MgCl2, 4 mmol/L MnCl2, and 0.5 mmol/L Na3VO4 in the absence or presence of the test compounds. The reaction was initiated by the addition of 1 μmol/L ATP. After incubation for 40 minutes at 30° C., the reaction mixture was discarded and the plate was then washed 4 times with 0.05% Tween20/PBS. Each well was incubated with 100 μL of 1:4000 diluted phospho-ERK1/2 monoclonal antibody (Cell Signaling, MA) for 1.5 hours at room temperature. The antibody was then discarded and the plate was washed 6 times with 0.05% Tween20/PBS. Finally, 100 μL of 1:2000 diluted of HRP conjugated anti-mouse IgG antibody (Cell Signaling, MA) was added. After incubation for 90 minutes, this antibody was discarded and the plate was washed 8 times with 0.05% Tween20/PBS. Phosphorylated ERK2 was then visualized by peroxidase reaction, and read at 450 nm. FIG. 2A is a table depicting results from MEK1 assays.
MEK1, sequence (Q02750 whole entry): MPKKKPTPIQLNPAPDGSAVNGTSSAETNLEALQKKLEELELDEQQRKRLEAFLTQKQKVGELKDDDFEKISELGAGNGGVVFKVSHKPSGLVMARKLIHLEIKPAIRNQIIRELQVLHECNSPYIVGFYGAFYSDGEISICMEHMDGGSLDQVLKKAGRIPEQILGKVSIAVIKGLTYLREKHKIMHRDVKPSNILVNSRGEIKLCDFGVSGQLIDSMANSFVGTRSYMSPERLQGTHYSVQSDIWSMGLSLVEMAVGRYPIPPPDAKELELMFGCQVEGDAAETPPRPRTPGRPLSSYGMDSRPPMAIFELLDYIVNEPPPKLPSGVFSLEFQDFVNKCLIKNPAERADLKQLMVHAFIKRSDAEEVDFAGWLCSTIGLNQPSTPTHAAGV

Series [5] relates to BxPC-3 human pancreatic cancer xenografts. The series can be described thus: In vivo antitumor activity in BxPC-3 xenografts. Further details: species or system mice. The conditions noted are these: 30 mg/kg i.v., two weekly rounds of q1d×5. As to the method: A study was carried out to investigate anticancer activity of compound 091 in human BxPC-3 pancreatic cancer xenografts. The compound was evaluated against subcutaneous-implanted BxPC-3 human pancreatic cancer xenografts in female athymic mice.
The human pancreatic cancer cell line, BxPC-3-T1 (no mutations on B-RAF and Ras genes) was transplanted subcutaneously into female nude mice. The experiment consisted of 8 mice per group on the first day of treatment. The compound was administered intravenously for two weekly rounds of five daily injections (q1d×5) with a two-day rest period between the rounds. The compound was administered in a vehicle volume of 0.1 mL/10 g of body weight.
The general health of the mice was monitored daily. Tumor dimensions and body weights were recorded twice a week starting on the first day of treatment. Tumor weights were calculated using the equation (l×w^2)/2, where 1 and w refer to the larger and smaller dimensions collected at each measurement. When the mean tumor volume reached 130 mm^3, vehicle (cremophor:ethanol:5% glucose; 1:1:8) or the test compound (15, 30 mg/kg) was administered to mice (8/group).

In series [6] the test system is LOX human melanoma xenografts. Briefly: In vivo antitumor activity in LOX xenografts. The arrangement: species or system mice. The method, then:
A study was carried out to investigate anticancer activity of compounds 091 and 106 in human LOX BRAF mutated melanoma xenografts. The compounds were evaluated against subcutaneous-implanted LOX human melanoma xenografts in female athymic mice.
The human melanoma cell line, LOX which has B-RAF (V600E) mutation was transplanted subcutaneously into female nude mice. The experiment consisted of 8 mice per group on the first day of treatment. Compounds were independently administered intravenously for two weekly rounds of five daily injections (q1d×5) with a two-day rest period between the rounds. Compounds were administered in a vehicle volume of 0.1 mL/10 g of body weight.
The general health of the mice was monitored daily. Tumor dimensions and body weights were recorded twice a week starting on the first day of treatment. Tumor weights were calculated using the equation (l×w^2)/2, where 1 and w refer to the larger and smaller dimensions collected at each measurement. When the mean tumor volume reached 128 mm^3, vehicle (cremophor:ethanol:5% glucose; 1:1:8) or one of the test compounds (10, 20, 30, or 40 mg/kg) was administered to mice (8/group).

Series [7] deals with Colo205 human colon cancer xenografts. Briefly: In vivo antitumor activity in Colo205 xenografts. Further details: species or system mice. Conditions: 30 mg/kg i.v., two weekly rounds of q1d×5. The method, then: A study was carried out to investigate anticancer activity of compounds 091 and 106 in human Colo205 BRAF mutated colon cancer xenografts. The compounds were evaluated against subcutaneous-implanted Colo205 human colon cancer xenografts in female athymic mice.
The human colon cancer cell line, Colo205 which has B-RAF (V600E) mutation was transplanted subcutaneously into female nude mice. The experiment consisted of 6 mice per group on the first day of treatment. The compound was administered intravenously for two weekly rounds of five daily injections (q1d×5) with a two-day rest period between the rounds. Compound 091 was administered in a vehicle volume of 0.1 mL/10 g of body weight.
The general health of the mice was monitored daily. Tumor dimensions and body weights were recorded twice a week starting on the first day of treatment. Tumor weights were calculated using the equation (l×w^2)/2, where 1 and w refer to the larger and smaller dimensions collected at each measurement. When the mean tumor volume reached 140 mm^3, vehicle (cremophor:ethanol:5% glucose; 1:1:8) or the test compound (30 mg/kg) was administered to mice (6/group).

`CNc1cc(O)c2c(c1)/C=C/C[C@H](O)[C@H](O)C(=O)/C=C\[C@@H](C)[C@H](C)OC2=O` [Compound 091]: the “sensitivity of cell growth” value in series [1] is recorded as “sensitive”. For the same molecule, in series [2] (1 μM alone, separate experiments (data not shown)), the “effect on PANC-1 cancer cell growth, compound alone” value was “did not affect”. Further, in series [2] (1 μM test compound in combination with SN-38), the “effect on cytotoxicity of SN-38” value is reported as “enhanced”. For the same molecule, in series [3], the “brain/plasma AUC0-t ratio” value worked out at 3.170. For the same molecule, in series [4], the “cell growth inhibition, concentration range of sensitivity” value was “low-nM or sub-μM”. Moreover, the MEK1 inhibitory activity result on MEK1 (1 μmol/L ATP) is given as “low nM activity”. The “MEK1 inhibitory activity, dependence on ATP” value on MEK1 (at a low concentration of ATP) is given as “more potent”. Besides, the tumor regression was 50% in series [5]; 100% in series [6] (10 mg/kg i.v., for the first three weeks); 100% in series [6] (20 mg/kg i.v., in all mice); 100% in series [6] (30 mg/kg i.v., in all mice); 100% in series [6] (40 mg/kg i.v., in all mice); around 70% in series [7]. Besides, the “tumor status of mice at the end of the study” value in series [6] (mice given 091) is recorded as “tumor free”.

Source of the values: patent US8937056B2, “Multikinase inhibitors for use in the treatment of cancer” (Eisai R&D Management Co., Ltd., priority 2007, dated 2015).
